Consider 4 compounds from patent publication US10688075B2 (Morgandane Scientific, LLC, priority 2018, dated 2020).

Values joined by “and” are separate entries in the source; they are usually repeats but may differ in a detail not shown here. Equal values may be shown once. Read-outs that look alike come from different tables or passages of the source.

The conditions of data set [1]: cited from earlier work.
The conditions of data set [2]: in vivo; cited from earlier work.
The next data set deals with P-gp (Homo sapiens, UniProt P08183). Conditions: in vitro; cited from earlier work.
Sequence of P-gp (P08183 whole entry): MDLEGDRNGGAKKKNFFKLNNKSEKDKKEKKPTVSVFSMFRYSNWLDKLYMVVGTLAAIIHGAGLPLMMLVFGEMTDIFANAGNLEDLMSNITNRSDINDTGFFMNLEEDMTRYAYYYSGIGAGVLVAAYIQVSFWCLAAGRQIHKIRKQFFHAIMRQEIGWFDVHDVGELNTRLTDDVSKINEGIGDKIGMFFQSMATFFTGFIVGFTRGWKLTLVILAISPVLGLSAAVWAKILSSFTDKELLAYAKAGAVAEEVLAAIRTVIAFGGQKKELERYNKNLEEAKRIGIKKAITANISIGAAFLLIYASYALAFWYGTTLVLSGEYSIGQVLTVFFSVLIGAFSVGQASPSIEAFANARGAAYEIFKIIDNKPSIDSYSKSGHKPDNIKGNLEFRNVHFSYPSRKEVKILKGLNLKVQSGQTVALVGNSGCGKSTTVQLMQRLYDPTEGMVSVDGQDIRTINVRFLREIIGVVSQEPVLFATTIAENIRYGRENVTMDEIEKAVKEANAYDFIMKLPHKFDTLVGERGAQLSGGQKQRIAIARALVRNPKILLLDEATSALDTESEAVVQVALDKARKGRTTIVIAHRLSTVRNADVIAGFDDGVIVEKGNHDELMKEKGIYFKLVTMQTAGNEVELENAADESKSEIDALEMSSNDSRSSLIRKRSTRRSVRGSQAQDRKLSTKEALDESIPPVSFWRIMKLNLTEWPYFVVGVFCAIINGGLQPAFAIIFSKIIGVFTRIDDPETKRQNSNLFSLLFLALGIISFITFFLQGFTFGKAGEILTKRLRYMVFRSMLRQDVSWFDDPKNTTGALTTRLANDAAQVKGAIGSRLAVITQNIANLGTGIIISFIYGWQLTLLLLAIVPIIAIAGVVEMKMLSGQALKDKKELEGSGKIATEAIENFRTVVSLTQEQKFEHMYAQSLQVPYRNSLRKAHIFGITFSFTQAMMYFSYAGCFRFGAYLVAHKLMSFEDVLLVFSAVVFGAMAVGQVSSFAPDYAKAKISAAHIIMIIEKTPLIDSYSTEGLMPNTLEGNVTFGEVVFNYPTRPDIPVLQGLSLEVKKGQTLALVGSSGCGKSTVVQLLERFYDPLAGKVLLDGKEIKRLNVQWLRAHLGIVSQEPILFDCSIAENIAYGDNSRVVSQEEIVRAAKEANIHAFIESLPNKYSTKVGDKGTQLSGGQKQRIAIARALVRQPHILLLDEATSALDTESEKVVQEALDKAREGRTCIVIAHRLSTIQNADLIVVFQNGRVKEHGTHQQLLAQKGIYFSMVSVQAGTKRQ
Data set [3] can be described thus: Plasma rivaroxaban pharmacokinetics: single 20 mg rivaroxaban alone (Period I) or with 360 mg verapamil at steady state (Period III), subjects with mild renal impairment or normal renal function. As for the experimental part: These patients are subjected to various one-time and longitudinal pharmacokinetic (PK) and pharmacodynamic (PD) analyses. […] Cmax and AUC values for each dose are calculated. Patients also undergo a general physical exam to determine overall health and well-being.
All the pharmacokinetic and pharmacodynamics analyses are repeated on patients receiving this treatment.
Subjects with either mild renal impairment or with normal renal function were enrolled.
Renal function of the subjects was determined by measuring creatinine clearance (CLcr) rates. Subjects who had CLcr≥90 mL/min were categorized as having normal renal function whereas subjects who had CLcr 50-79 mL/min were categorized as mildly renally impaired. Blood samples were collected and processed according to the standard protocols.

Another data set concerns Prothrombin Time. Description: Prothrombin time (STA Neoplastin method) after rivaroxaban with or without verapamil. It counts as in vivo, human. An excerpt:
As used herein, the term “prothrombin time” (PT) refers to a blood test that measures how long it takes blood to clot. In some embodiments, a prothrombin time test can be used to measure of a patient's haemostasis. In some embodiments, PT can be used to measure the effectiveness or exposure to a blood clotting drug. Persons having skill in the art sometimes interchangeably refer to a PT test as an INR. […] Additionally, PT measurements are subject to variability based on the test reagent and laboratory test ranges determined by each institution.
Additional pharmacodynamic metrics are also gathered for each patient, including, but not limited to: prothrombin time (using the STA® Neoplastin® method) and Factor Xa activity. […] Renal Function and non-vitamin K oral anticoagulants in comparison with warfarin on safety and efficacy outcomes in atrial fibrillation patients: a systemic review and meta-regression analysis.
Blood samples were collected and processed according to the standard protocols.

The target of the next data set is T1, Factor Xa (Homo sapiens, UniProt P00742).
T1 construct: host or cells: human subjects
T1 sequence (P00742 235-488 limits assumed): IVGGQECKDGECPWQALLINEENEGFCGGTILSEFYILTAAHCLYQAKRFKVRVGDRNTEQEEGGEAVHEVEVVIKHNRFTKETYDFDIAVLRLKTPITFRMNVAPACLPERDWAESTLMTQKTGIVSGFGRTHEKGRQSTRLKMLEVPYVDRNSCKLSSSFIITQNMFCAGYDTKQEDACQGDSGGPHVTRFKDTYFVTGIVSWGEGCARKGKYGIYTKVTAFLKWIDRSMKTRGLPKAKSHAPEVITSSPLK
T1 sequence (P00742 41-179 partner limits assumed): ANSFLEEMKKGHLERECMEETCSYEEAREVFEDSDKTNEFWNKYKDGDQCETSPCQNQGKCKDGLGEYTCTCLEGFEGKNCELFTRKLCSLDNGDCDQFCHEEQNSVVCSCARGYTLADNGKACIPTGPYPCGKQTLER
Briefly: Factor Xa activity after rivaroxaban with or without verapamil. It counts as in vivo. From the text:
Additional pharmacodynamic metrics are also gathered for each patient, including, but not limited to: prothrombin time (using the STA® Neoplastin® method) and Factor Xa activity. Protocols for each of these analyses have been described in Nielsen et al 2015. Renal Function and non-vitamin K oral anticoagulants in comparison with warfarin on safety and efficacy outcomes in atrial fibrillation patients: a systemic review and meta-regression analysis.

The nature of data set [4]: Risk of major bleeding from steady state rivaroxaban AUC (FIG. 5). The class given is in vivo, human. As for the experimental part: See Center for Drug Evaluation and Research, Application No. 022406Orig1s000, Clinical Pharmacology and Biopharmaceutics Review(s), at page 36, which is hereby incorporated by reference in its entirety.
Group “c” represents the average of the three subjects in Group “b” who had the highest AUCinf, which was about 8,143 μg·hr/L. The risk of major bleeding of the subjects in Group “c” were at least 5 times higher compared to the populations in Group “a” and not even visible on this scale.

Data set [5] can be described thus: Reported rivaroxaban serious bleeding adverse events by concomitant drug. The class given is in vivo, human. An excerpt: 8, 2015, American Heart Association, Scientific Sessions 2015, and published at http://www.abstractsonline.com/pp8/#!/3795/presentation/37668).
A short description of data set [6]: Drug-drug interaction study of oral verapamil and 0.5-2.5 mg rivaroxaban (Example 4). The class given is in vivo, human. Conditions: 0.5-2.5 mg rivaroxaban with verapamil (100-480 mg). As for the experimental part:
A control study is performed to determine the presence of DDIs in patients treated with oral verapamil and rivaroxaban (without aspirin). […]. A representative example of a sample study is found in Example 1.

The nature of data set [7]: Drug-drug interaction study of oral verapamil, aspirin and rivaroxaban (Example 5). The class given is in vivo, human. Conditions: for Risk of major bleeding: e.g. As for the experimental part: Additional studies are performed to determine the presence of DDIs in patients treated with oral verapamil, aspirin, and rivaroxaban. […] A representative example of such a study is found in Example 1. […] Additionally, these studies show a linear relationship between the pharmacokinetic and the pharmacodynamics of rivaroxaban in subjects with normal renal function and renal insufficiency.

For data set [8] the following is noted: cited from earlier work. This is another data set of the same source.
The conditions of data set [9]: cited from earlier work. The source holds these as a separate data set.
The mark [10] stands for this setting: Example 1: 20 mg rivaroxaban + 360 mg verapamil vs rivaroxaban alone.
Where [11] appears, read: Example 4: 0.5-2.5 mg rivaroxaban with verapamil (100-480 mg).

For the compound `COc1ccc(NC(=O)c2ccc(C(=N)N(C)C)cc2)c(C(=O)Nc2ccc(Cl)cn2)c1` [betrixaban], in data set [1] (BEVYXXA label), the “Exposure on concomitant use of P-gp inhibitors, such as verapamil” value is given as “increased exposure to betrixaban”.

On to `CN1CCc2nc(C(=O)N[C@@H]3C[C@@H](C(=O)N(C)C)CC[C@@H]3NC(=O)C(=O)Nc3ccc(Cl)cn3)sc2C1` [edoxaban], for which the “Bleeding or other adverse events on co-administration with verapamil” value in data set [1] (Mendell et al.) is on record as “did not lead to any increased bleeding or other adverse events”.

With `CC[C@H]1OC(=O)[C@H](C)[C@@H](O[C@H]2C[C@@](C)(OC)[C@@H](O)[C@H](C)O2)[C@H](C)[C@@H](O[C@@H]2O[C@H](C)C[C@H](N(C)C)[C@H]2O)[C@](C)(O)C[C@@H](C)C(=O)[C@H](C)[C@@H](O)[C@]1(C)O` [erythromycin], the “Eliminated renally (unchanged)” value in data set [2] is given as 2-15%. In addition, the “Inhibition of P-gp-mediated efflux of rivaroxaban across cell monolayers” value on P-gp is recorded as “did not inhibit”.

For `O=C(NC[C@H]1CN(c2ccc(N3CCOCC3=O)cc2)C(=O)O1)c1ccc(Cl)s1` [Rivaroxaban], the CL/F/kg in [3] (Period I, rivaroxaban alone, Group 2 normal renal function (N = 13), outlier sample excluded, arithmetic mean) was 0.108 (L/hr)/kg; in data set [3] (Period III, rivaroxaban and verapamil, Group 2 normal renal function (N = 10), individual subjects), 0.0664 (L/hr)/kg and 0.0705 (L/hr)/kg and 0.0839 (L/hr)/kg; in data set [3] (Period III, rivaroxaban and verapamil, Group 2 normal renal function (N = 10), median), 0.0664 (L/hr)/kg. The same compound showed a t1/2 in data set [3] (human, in vivo, 20 mg) of 9.44 h. In addition, the “PT on concomitant verapamil” value in the data set with Prothrombin Time (setting [10]) and in the data set with Prothrombin Time (setting [11]) was “prolonged PT” in each case. For the same compound, the “Relationship between plasma concentrations of rivaroxaban and PT (pharmacokinetics vs pharmacodynamics)” value in the data set with Prothrombin Time (subjects with normal renal function and mild renal insufficiency, Day 1 and Day 15, FIGS. 1 and 2) is “clear linear relationship”. The “Factor Xa inhibition on concomitant verapamil” value at Factor Xa (setting [10]) and on Factor Xa (setting [11]) was “increased Factor Xa inhibition” throughout. For the same compound, in [4] (fed subjects, single 20 mg rivaroxaban, AUC about 2,026 μg·hr/L, FIG. 5), the “Risk of major bleeding, Group a” value is listed as “about 3%”. In addition, in data set [4] (mild renal impairment, single 20 mg rivaroxaban and 360 mg verapamil), the “Risk of major bleeding compared to Group a, Group b” value is 2.5 times higher. Also, in data set [4] (three subjects of Group b with the highest AUCinf), the “Risk of major bleeding compared to Group a, Group c” value is given as “at least 5 times higher”. In data set [5] (concomitant administration of rivaroxaban and erythromycin), the “Association with increased serious bleeding adverse events” value is on record as “not associated with increased serious bleeding adverse events”. The “Share of the reported rivaroxaban serious bleeding adverse events” value in data set [5] (patients concomitantly administered verapamil and rivaroxaban, who account for only 22% of the total population receiving rivaroxaban) amounted to 30%. The “Rivaroxaban plasma concentrations on concomitant verapamil” value in [6] is listed as “higher rivaroxaban plasma concentrations”. Moreover, the “Risk of major bleeding compared to subjects not concomitantly administered verapamil” value in data set [7] (concomitant oral verapamil, aspirin and rivaroxaban) is “significantly higher risk of major bleeding”. The “Risk of major bleeding” value was “not more than 4.5%” in [7] (single 1.75 mg rivaroxaban and verapamil (e.g., 360 mg), Example 5, from about 1.5-2.0%); “not more than 4.5%” in [7] (single 2.5 mg rivaroxaban, verapamil (e.g., 360 mg) and aspirin (100 mg), about 3%). Moreover, in data set [8] (2.5 mg rivaroxaban, no verapamil), the “Geometric mean AUC of rivaroxaban for 2.5 mg dose” value is listed as 165.4 μg·h/L to 551.9. Also, the “Geometric mean AUC of rivaroxaban for 5 mg dose” value in data set [8] (5 mg rivaroxaban, no verapamil) is 1064.25 µg·h/L. The “Average AUC (average geometric mean), Group a” value in data set [8] (fed subjects across studies 10989 and 11938, single 20 mg rivaroxaban, FIG. 5) is “approximately 2,026 μg·hr/L”. The “Upper bound of the 90% confidence interval of the steady state AUC (Label A)” value in [8] (patients administered 20 mg of rivaroxaban, FIG. 4) is reported as “about 3,792 μg·hr/L”. The “Upper boundary of the 90% confidence interval of the steady state AUC (Label C)” value in data set [8] (single 20 mg dose of rivaroxaban after a meal (study 10989), FIG. 4) was “about 2,448 μg·hr/L”. In addition, the “Dose eliminated in urine as unprocessed active drug” value in [2] is given as roughly 36%. The “Dose eliminated through active renal secretion” value in [2] is given as 30%. The “Dose eliminated through glomerular filtration” value in data set [2] is given as 6%. The “Dose subject to metabolic degradation via the liver's oxidative and hydrolytic pathways” value in data set [2] is “two-thirds”. The “Share of rivaroxaban clearance accounted for by CYP3A4” value in data set [2] was “approximately 18%”. The “Risk of major bleeding events compared to aspirin alone” value in data set [9] (2.5 mg rivaroxaban (BID) and aspirin) is listed as “increase the risk of major bleeding events”; in data set [9] (5 mg dose of rivaroxaban alone) it was “increase the risk of major bleeding events”. Moreover, in data set [9] (rivaroxaban 2.5 mg BID and aspirin, patients with cardiovascular disease), the “Clinical outcomes (stroke, myocardial infarction, cardiovascular death) compared to aspirin alone and rivaroxaban 5 mg BID alone” value was “reduce several clinical outcomes”.
